Source: US5670503A, “Pyrazole derivatives” (Fujisawa Pharmaceutical Co., Ltd., priority 1993, dated 1997)

Key:
[1] = system: production of Interleukin-1 (IL-1); test: Inhibitory activity on the production of Interleukin-1 (IL-1) in LPS-stimulated human peripheral blood monocyte; type: cell-based; conditions: 48 h; purified human peripheral blood monocyte, LPS 1 μg/10^4 cells, 2 days at 37° C., IL-1β ELISA of supernatant; read-out: IC50 (inhibition of IL-1 production)
Procedure: Purified human peripheral blood monocyte were stimulated with bacterial lipopolysaccharide (1 μg/10^4 cells) in the absence or presence of appropriately diluted test compound for 2 days at 37° C. in a humidified 5% CO2 atmosphere. Culture supernatants were tested for IL-1 ELISA assay.
Test compound was dissolved in absolute DMSO (dimethyl sulfoxide) to achieve 10 mM stock solutions and was subsequently diluted in serum free RPMI1640.
IL-1 levels were quantified by a commercial ELISA kit (Ohtsuka assay, Japan) using a sandwich technique. The sensitivity levels for the detection of IL-1β were 20 pg/ml.
(§1) The inhibitory concentration that caused a 50% inhibition (IC50) was calculated by regression analysis of the dose-response data.

[2] = system: production of tumor necrosis factor (TNF); test: Inhibitory activity on the production of tumor necrosis factor (TNF) in LPS-stimulated human peripheral blood monocyte; type: cell-based; conditions: 48 h; purified human peripheral blood monocyte, LPS 1 μg/10^4 cells, 2 days at 37° C., TNF ELISA of supernatant; read-out: IC50 (inhibition of TNF production)
Procedure: Purified human peripheral blood monocyte were stimulated with bacterial lipopolysaccharide (1 μg/10^4 cells) in the absence or presence of appropriately diluted test compound for 2 days at 37° C. in a humidified 5% CO2 atmosphere. Culture supernatants were tested for TNF ELISA assay.
TNF levels were quantified by a commercial ELISA kit (Endogen, Inc. USA) using a sandwich technique. The sensitivity levels for the detection of TNF were 12 pg/ml.
as §1

## Fc1ccc(-c2nn3c(c2-c2ccncc2)NN(C2CCCCC2)CC3)cc1 [Example 18-(2), 2-Cyclohexyl-7-(4-Fluorophenyl)-8-(pyridin-4-yl)-1,2,3,4-tetrahydropyrazolo[5,1-c][1,2,4]triazine]
[1]
  IC50: 88 nM
[2]
  IC50: 110 nM

## CC(C)(C)CN1CCn2nc(-c3ccc(F)cc3)c(-c3ccncc3)c2N1 [Example 16-(5), 7-(4-Fluorophenyl)-2-neopentyl-8-(pyridin-4-yl)-1,2,3,4-tetrahydropyrazolo[5,1-c][1,2,4]triazine]
[1]
  IC50: 92 nM
[2]
  IC50: 91 nM
